{"source": "patent US12168673B2", "about": "(Mitopower, Inc., priority 2022, dated 2024)", "key": {"[1]": {"assay": "Human hepatocyte clearance", "assay_type": "in vitro ADME", "settings": "human hepatocytes, 1 μM; for half-life at 1 μM: 0-90 min, read-out: T½; for hepatocyte CLint at 1 μM: read-out: Intrinsic Clearance (CL Int)", "protocol": "(§1) A hepatocyte vial was taken out from the liquid nitrogen tank and was thawed in a water bath maintained at 37° C. The thawed cell suspension was transferred into a torsion tube containing 50 mL of thawing media (Xenotech). The thawing media containing hepatocytes was centrifuged at 1000 rpm for 5 min, the supernatant was discarded and the pellet was resuspended in 2 ml of Xenotech OptiIncubate Media. The cells were counted by using a haemocytometer after mixing an aliquot of cell suspension with equal volume of trypan blue. The cell suspension was diluted to a working density of 2 million cells with DMEM media without FBS/incubation media.\n(§2) The assay was performed in duplicates (n=2). 150 μL of 2 million cell working stock of hepatocyte cell suspension was added to a 24 well plate and incubated in a 37° C. incubator, with speed of 500 RPM for 10 min. 150 μL of 2 μM working stock of test compound was incubated separately. The reaction at 0, 15, 30, 60 and 90 min was stopped by precipitating 20 μL of incubation mixture with 200 μL of acetonitrile containing internal standard. […] The supernatant was separated and diluted 1:1 with water before injecting in LC-MS/MS analysis."}, "[2]": {"tested_on": "human hepatocytes", "assay": "Human hepatocyte clearance", "assay_type": "in vitro ADME", "protocol": "as §1, §2"}, "[3]": {"tested_on": "primary human hepatocytes", "assay": "NAD+ in primary human hepatocytes at 250 μM (Example 10)", "assay_type": "cell-based", "settings": "four hours of incubation", "protocol": "(§3) Cryopreserved primary human hepatocytes, sourced from Lonza were cultured and were seeded into 6 well dishes with 0.5 million cells per well. […] The cells were later spun down and extracted. The supernatant was tested via LCMS/MS for NAD^+."}, "[4]": {"tested_on": "primary human hepatocytes", "assay": "NAD+ in primary human hepatocytes (Example 12)", "assay_type": "cell-based", "settings": "10 μM, four hours of incubation", "protocol": "as §3"}, "[5]": {"tested_on": "human hepatocytes", "assay": "Human hepatocyte stability"}, "[6]": {"tested_on": "HepG2 cells", "assay": "Cellular NAD+ levels in HepG2 cells, NAD cycling assay", "assay_type": "cell-based", "settings": "for NAD+ level increase at the lowest concentration: HepG2, 10 μM", "protocol": "HepG2 cells were seeded at densities of 1 million cells per well in a 6 well plate. The next day, cells were treated with test compounds for 4 hours and were harvested using the below protocol. Each well was washed once with 2 mL ice cold PBS which was removed and 400 μL 2M HClO4 (perchloric acid) was added to each well, which was scraped and the residue transferred to 1.5 mL tubes and spun down. 100 μL of the supernatant was transferred to a clean 1.5 mL vial and 150 μL KOH/MOPS 2M/0.6M (neutralization buffer) was added to each vial under vortex which was spun down. The pH was measured following the NAD cycling protocol.\nNAD standards were prepared from 0 to 0.5 μM in water as per Table 7.\nThe cycling reaction was prepared as follows. 10 μl samples were added followed by water to bring the volume up to 25 μl. 25 μl of each standard was used in duplicates for the reaction. Then 50 μl of mix A (cycling mix) was added to the sample and standards. Mix A contained the following:\nReaction was initiated using 25 μL enzyme mix (15 U/ml of alcohol dehydrogenase+15 U/mL of malate dehydrogenase). The samples were incubated at 37° C. for 30 minutes in a water bath and the reaction terminated by heating in a water bath for 5 minutes at 80° C. Then 25 μl of the sample was used in the detection step. 100 μl mix B, which contains following components were added to the sample.\nReaction was initiated using a start reagent (prepared by mixing 10 μl of malate dehydrogenase and 10 μl of glutamate oxaloacetic transaminase in 1 ml of water. The reading were measured at 340 nm in a envision plate reader. The results are shown in FIGS. 4A-4D."}}, "data": [{"smiles": "COC(=O)[C@@H](C)N[P@@](=O)(OC[C@H]1OC(OC(=O)c2cccnc2)[C@H](O)[C@@H]1O)Oc1ccccc1", "note": "(single isomer, unassigned) [Compound 104]", "values": [{"measurement": "half-life at 1 μM", "setting": "[1]", "result": 48.1, "unit": "min"}, {"measurement": "hepatocyte CLint at 1 μM", "setting": "[1]", "result": 14.4, "unit": "µL/min/1e6 cells"}, {"measurement": "Remarks (clearance class)", "setting": "[2]", "result": "medium clearance"}, {"measurement": "NAD+ level increase compared to untreated cells", "setting": "[3]", "result": "statistically significant NAD^+ level increases"}, {"measurement": "NAD+ level increase compared to untreated cells", "setting": "[4]", "result": "statistically significant NAD^+ level increases"}, {"measurement": "clearance in human hepatocytes (in words)", "setting": "[5]", "result": "medium clearance"}, {"measurement": "% Parent Remaining", "setting": "[5]; 0 mins", "result": 100, "unit": "%"}, {"measurement": "% Parent Remaining", "setting": "[5]; 15 mins", "result": 78, "unit": "%"}, {"measurement": "% Parent Remaining", "setting": "[5]; 30 mins", "result": 65, "unit": "%"}, {"measurement": "% Parent Remaining", "setting": "[5]; 60 mins", "result": 45, "unit": "%"}, {"measurement": "% Parent Remaining", "setting": "[5]; 90 mins", "result": 24, "unit": "%"}, {"measurement": "NAD+ level increase at the lowest concentration", "setting": "[6]", "result": "statistically significant increase"}, {"measurement": "NAD+ level increase compared to nicotinic acid", "setting": "[6]; HepG2, all concentrations (10-250 μM)", "result": "statistically significant increase"}]}, {"smiles": "COC(=O)[C@@H](C)N[P@](=O)(OC[C@H]1OC(OC(=O)c2cccnc2)[C@H](O)[C@@H]1O)Oc1ccccc1", "note": "(single isomer, unassigned) [Compound 103]", "values": [{"measurement": "half-life at 1 μM", "setting": "[1]", "result": 22.2, "unit": "min"}, {"measurement": "hepatocyte CLint at 1 μM", "setting": "[1]", "result": 31.3, "unit": "µL/min/1e6 cells"}, {"measurement": "Remarks (clearance class)", "setting": "[2]", "result": "High"}, {"measurement": "NAD+ level increase compared to untreated cells", "setting": "[3]", "result": "statistically significant NAD^+ level increases"}, {"measurement": "NAD+ level increase compared to untreated cells", "setting": "[4]", "result": "statistically significant NAD^+ level increases"}, {"measurement": "% Parent Remaining", "setting": "[5]; 0 mins", "result": 100, "unit": "%"}, {"measurement": "% Parent Remaining", "setting": "[5]; 15 mins", "result": 63, "unit": "%"}, {"measurement": "% Parent Remaining", "setting": "[5]; 30 mins", "result": 40, "unit": "%"}, {"measurement": "% Parent Remaining", "setting": "[5]; 60 mins", "result": 15, "unit": "%"}, {"measurement": "% Parent Remaining", "setting": "[5]; 90 mins", "result": 5, "unit": "%"}, {"measurement": "NAD+ level increase at the lowest concentration", "setting": "[6]", "result": "statistically significant increase"}]}]}
